Where a name gives a salt, the structure may show the parent alone.
System: serotonin re-uptake (synaptosomal re-uptake of tritiated serotonin)
Assay: Inhibition of synaptosomal re-uptake of tritiated serotonin
Type: biochemical
Conditions: in vitro; nM of test compound that inhibits uptake by 50%; read-out: SUI (Serotonin Uptake Inhibition potency), in vitro IC50
Protocol: Determination of endogenous monoaminergic re-uptake inhibition values for serotonin was accomplished using test methods described by P. Skolnick, et al., Br. J. Pharmacology, (1985), 86, pp. 637-644; with only minor modifications. In vitro IC50 (nM) test values were determined for representative compounds of Formula I based on their inhibition of synaptosomal re-uptake of tritiated serotonin. Test data IC50 values lower than 500 nM are considered to reflect activity as an inhibitor of serotonin re-uptake.

Row | Structure (SMILES) | IC50 [nM]
1 | COc1cccnc1N(C)CCCN1CC=C(c2cccc3ccccc23)CC1 [Example 14, 3,6-dihydro-N-(3-methoxy-2-pyridinyl)-N-methyl-4-(1-naphthalenyl)-1(2H)-pyridinepropanamine fumarate] | < 100
2 | CCOc1cccnc1N(C)CCCN1CC=C(c2cccc3ccccc23)CC1 [Example 15, 3,6-dihydro-N-(3-ethoxy-2-pyridinyl)-N-methyl-4-(1-naphthalenyl)-1(2H)-pyridinepropanamine fumarate] | < 100
3 | CN(CCCN1CC=C(c2cccc3ccccc23)CC1)c1cc(C(F)(F)F)ccn1 [Example 16, 3,6-dihydro-N-methyl-N-(4-trifluoromethyl-2-pyridinyl)-4-(1-naphthalenyl)-1(2H)-pyridinepropanamine fumarate] | < 100
4 | CN(CCCN1CC=C(c2cccc3ccccc23)CC1)c1ccc(Cl)cn1 [Example 17, 3,6-dihydro-N-methyl-N-(5-chloro-2-pyridinyl)-4-(1-naphthalenyl)-1(2H)-pyridinepropanamine fumarate] | < 10
5 | CN(CCCN1CC=C(c2cccc3ccccc23)CC1)c1cccc(C(F)(F)F)n1 [Example 18, 3,6-dihydro-N-methyl-N-(6-trifluoromethyl-2-pyridinyl)-4-(1-naphthalenyl)-1(2H)-pyridinepropanamine fumarate] | < 100
6 | CN(CCCN1CC=C(c2cccc3ccccc23)CC1)c1cc(Cl)ccn1 [Example 19, 3,6.dihydro-N-methyl-N-(4-chloro-2-pyridinyl)-4-(1-naphthalenyl)-1(2H)-pyridinepropanamine] | < 100
7 | CN(CCCN1CC=C(c2cccc3ccccc23)CC1)c1ccnc(Cl)c1 [Example 20, 3,6-dihydro-N-methyl-N-(2-chloro-4-pyridinyl)-4-(1-naphthalenyl)-1(2H)-pyridinepropanamine fumarate] | < 10
8 | COc1cncnc1N(C)CCCN1CC=C(c2cccc3ccccc23)CC1 [Example 21, 3,6-dihydro-N-(5-methoxy-4-pyrimidinyl)-N-methyl-4-(1-naphthalenyl)-1(2H)-pyridinepropanamine fumarate] | < 10
9 | CCN(CCCN1CC=C(c2cccc3ccccc23)CC1)c1ncncc1OC [Example 22, 3,6-dihydro-N-(5-methoxy-4-pyrimidinyl)-N-ethyl-4-(1-naphthalenyl)-1(2H)-pyridinepropanamine fumarate] | < 10
10 | COc1ccc2cccc(C3=CCN(CCCNc4ncncc4OC)CC3)c2c1 [Example 23, 3,6-dihydro-4-(7-methoxy-1-naphthalenyl)-N-(5-methoxy-4-pyrimidinyl)-1(2H)-pyridinepropanamine fumarate] | < 100
11 | COc1cncnc1NCCCN1CC=C(c2cccc3ccc(F)cc23)CC1 [Example 24, 3,6-dihydro-4-(7-fluoro-1-naphthalenyl)-N-(5-methoxy-4-pyrimidinyl-1(2H)-pyridinepropanamine fumarate] | < 500
12 | COc1cncnc1NCCCN1CC=C(c2cccc3ccc(Cl)cc23)CC1 [Example 25, 3,6-dihydro-4-(7-chloro-1-naphthalenyl)-N-(5-methoxy-4-pyrimidinyl)-1(2H)-pyridinepropanamine fumarate] | < 500
13 | COc1cncnc1NCCN1CC=C(c2cccc3ccccc23)CC1 [Example 26, 3.6-dihydro-4-(1-naphthalenyl)-N-(5-methoxy-4-pyrimidinyl)-1(2H)-pyridineethanamine fumarate] | < 100
14 | COc1cncnc1NCCCN1CC=C(c2cccc3ccccc23)CC1 [Example 27, 3.6-dihydro-4-(1-naphthalenyl)-N-(5-methoxy-4-pyrimidinyl)-1(2H)-pyridinepropanamine hydrochloride] | < 10
15 | CCOc1cncnc1NCCCN1CC=C(c2cccc3ccccc23)CC1 [Example 28, 3,6-dihydro-4-(1-naphthalenyl)-N-(5-ethoxy-4-pyrimidinyl)-1-(2H)-pyridinepropanamine fumarate] | < 10
16 | COc1cnccc1NCCCN1CC=C(c2cccc3ccccc23)CC1 [Example 29, 3,6-dihydro:4-(1-naphthalenyl)-N-(3-methoxy-4-pyridinyl)-1(2H)-pyridinepropanamine fumarate] | < 100
17 | Clc1nccnc1NCCCN1CC=C(c2cccc3ccccc23)CC1 [Example 30, 3,6-dihydro-4-(1-naphthalenyl)-N-(3-chloro-2-pyrazinyl)-1(2H)-pyridinepropanamine fumarate] | < 10
18 | COc1nccnc1NCCCN1CC=C(c2cccc3ccccc23)CC1 [Example 31, 3,6-dihydro-4-(1-naphthalenyl)-N-(3-methoxy-2-pyrazinyl)-1(2H)-pyridinepropanamine fumarate] | < 10
19 | COc1cncnc1NCCCCN1CC=C(c2cccc3ccccc23)CC1 [Example 32, 3,6-dihydro-N-(5-methoxy-4-pyrimidinyl)-4-(1-naphthalenyl)-1(2H)-pyridinebutanamine fumarate] | < 100
20 | COc1cccnc1NCCCN1CC=C(c2cccc3ccccc23)CC1 [Example 33, 3,6-dihydro-N-(3-methoxy-2-pyridinyl)-4-(1-naphthalenyl)-1(2H)pyridinepropanamine fumarate] | < 10
21 | CCOc1cccnc1NCCCN1CC=C(c2cccc3ccccc23)CC1 [Example 34, 3,6-dihydro-N-(3-ethoxy-2-pyridinyl)-4-(1-naphthalenyl)-1(2H)-pyridinepropanamine fumarate] | < 10
22 | FC(F)(F)c1cccc(NCCCN2CC=C(c3cccc4ccccc34)CC2)n1 [Example 35, 3,6-dihydro-N-(6-trifluoromethyl-2-pyridinyl)-4-(1-napthalenyl)-1(2H)-pyridinepropanamine fumarate] | < 100
23 | Clc1ccc(NCCCN2CC=C(c3cccc4ccccc34)CC2)nc1 [Example 36, 3,6-dihydro-N-(5-chloro-2-pyridinyl)-4-(1-naphthalenyl)-1(2H)-pyridinepropanamine fumarate] | < 10
24 | FC(F)(F)c1ccnc(NCCCN2CC=C(c3cccc4ccccc34)CC2)c1 [Example 37, 3,6dihydro-N-(4-trifluromethyl-2-pyridinyl)-4-(1-napthalenyl-1(2H)-pyridinepropanamine fumarate] | < 100
25 | COc1cncnc1NCCCN1CCC(c2cccc3ccccc23)CC1 [Example 38, 4-(1-naphthalenyl)-N-(5-methoxy-4-pyrimidinyl)-1-piperidinepropanaminefumarate] | < 10
26 | C1=C(c2cccc3ccccc23)CCN(CCCNc2cccc3ccccc23)C1 [Example 39, 3,6-dihydro-N-(1-naphthalenyl)-4-(1-naphthalenyl)-1(2H)-pyridinepropanamine fumarate] | < 10
27 | COc1ccccc1NCCCN1CC=C(c2cccc3ccccc23)CC1 [Example 40, 3,6-dihydro-N-(2-methoxyphenyl)-4-(1-naphthalenyl)-1-(2H)-pyridinepropanamine fumarate] | < 10
28 | Clc1cccc(NCCCN2CC=C(c3cccc4ccccc34)CC2)c1 [Example 41, 3,6-dihydro-N-(3-chlorophenyl)-4-(1-naphthalenyl)-1(2H)-pyridinepropanamine fumarate] | < 100
29 | FC(F)(F)c1cccc(NCCCN2CC=C(c3cccc4ccccc34)CC2)c1 [Example 42, 3,6-dihydro-N-(3-trifluoromethylphenyl)-4-(1-naphthalenyl)-1(2H)-pyridinepropanamine fumarate] | < 100

From patent US5472966A, “Antidepressant heteroarylaminoalkyl derivatives of naphthyl-monazines” (Bristol-Myers Squibb Company, priority 1995, dated 1995)
